Laboratory results: US10391148B2, “Method of prevention and inhibition of preterm labor” (Wayne State University, priority 2016, dated 2019)

Tests used:
Format in all cases: in vivo, mouse
[1] = system: pregnant female μMT mice (LPS-induced PTL); experiment: LPS-induced preterm labor in pregnant μMT mice: preterm delivery and neonatal/fetal mortality; conditions: read on gd 17.5, fPIBF1 1 μg (800 ng in method), cPIBF1 300 ng, vs PBS
Procedure: (§1) Six to ten-week old virgin female C57BL/6 (WT) or μMT mice were mated with male Balb/c mice. Female mice were examined daily in the early morning for the presence of a vaginal plug, which denoted gestational day (gd) 0.5. In the late morning of gd 16.5, pregnant female mice were intraperitoneally administered with 200 μl sterile PBS or 200 μl sterile PBS containing 0.5, 2.5, 5, 10 or 20 μg lipopolysaccharides (LPS) from Salmonella enterica serotype typhimurium (Sigma-Aldrich L6143). The various doses of LPS were given to the mice randomly. In some experiments, splenic B cells of 5 to 8-week old virgin female WT or IL-10−/− mice were purified using a mouse resting B cell negative isolation kit (Miltenyi Biotec 130-090-862) to 94% to 99% purity as determined by CD19 staining. 107 purified B cells were adoptively transferred in 200 μl sterile PBS into pregnant female μMT mice on gd 14.5 prior to LPS administration on gd 16.5. In some other experiments, 200 μl sterile PBS or 200 μl sterile PBS containing 800 ng recombinant full-length PIBF1 (fPIBF1) (aa 1-757 (SEQ ID NO:11, with an N-terminal glutathione-S-transferase (GST) tag of 232 amino acids, Abnova H00010464-P01) or 300 ng of a recombinant C-terminal fragment of PIBF1 (cPIBF1) (aa 660-755 (SEQ ID NO:12), with an N-terminal glutathione-S-transferase (GST) tag of 232 amino acids, Abnova H00010464-Q01) was intravenously administered to pregnant female μMT mice on gd 16.5 three hours prior to intraperitoneal LPS administration. 24 hours after LPS administration, female mice were examined for delivery and death of delivered pups if delivery occurred. They were then sacrificed for the examination of neonatal/fetal mortality, which was calculated as the total number of dead delivered pups and dead fetuses divided by the total number of implantation sites. Uteri were collected, briefly washed in PBS and processed for RNA and protein extraction or flow cytometry. The people performing the analysis were not blinded to the genotype or treatment of the mice.
The sample size was calculated based on the effect size derived from preliminary data at 5% significance level and 80% power using the software G*Power 3.1. Sample availability exceeded the estimated sample size. Results are expressed as mean±S.E.M. Percentage data were subjected to square root transformation prior to statistical analysis to verify test assumptions of equal variance. Statistical difference in the rate of PTL between different strains of mice or different treatment groups was assessed by Fisher's exact test. Statistical difference in neonatal/fetal mortality was assessed by Mann-Whitney U test. For flow cytometry and qRT-PCR data, Shapiro-Wilk test was used to determine the normality of the data. Statistical significance was assessed by Student's t-test for normally distributed data and Mann-Whitney U test for non-normally distributed data. p values <0.05 were considered statistically significant.

[2] = system: CD11b+Ly-6G+ neutrophils in uterine tissues; experiment: Flow cytometry of uterine neutrophils of LPS-challenged μMT mice; conditions: vs PBS; for uterine neutrophil activation (CD11b, CD18, iNOS, ICAM-1, MHC-II, CD62L expression): μMT mice 24 hours after intravenous protein and intraperitoneal LPS
Procedure: as §1, with “Uteri were collected, briefly washed in PBS and processed for RNA and protein extraction or flow cytometry. The people performing the analysis were not blinded to the genotype or treatment of the mice.” left out
Cells were incubated with an Fc blocking reagent and stained at 4° C. with antibodies to various cell surface antigens (Tables 4, 5). […] Events were acquired on an LSR II cytometer (BD Biosciences) and analyzed by FlowJo (Tree Star). […]

[3] = system: uterine proinflammatory mediators (Tnf, Il6, Mmp9, Cxcl2, Cxcl3, Cxcl5, Il1b, Cxcl10, Ccl3, Cxcl1, Ccl2, Cxcl9 transcripts); experiment: qRT-PCR of proinflammatory mediator transcripts in uterine tissues of LPS-challenged μMT mice; conditions: 24 hours after intravenous fPIBF1 and 5 μg intraperitoneal LPS, fold change of transcripts
Procedure: Six to ten-week old virgin female C57BL/6 (WT) or μMT mice were mated with male Balb/c mice. Female mice were examined daily in the early morning for the presence of a vaginal plug, which denoted gestational day (gd) 0.5. In the late morning of gd 16.5, pregnant female mice were intraperitoneally administered with 200 μl sterile PBS or 200 μl sterile PBS containing 0.5, 2.5, 5, 10 or 20 μg lipopolysaccharides (LPS) from Salmonella enterica serotype typhimurium (Sigma-Aldrich L6143). The various doses of LPS were given to the mice randomly. In some experiments, splenic B cells of 5 to 8-week old virgin female WT or IL-10−/− mice were purified using a mouse resting B cell negative isolation kit (Miltenyi Biotec 130-090-862) to 94% to 99% purity as determined by CD19 staining. 107 purified B cells were adoptively transferred in 200 μl sterile PBS into pregnant female μMT mice on gd 14.5 prior to LPS administration on gd 16.5. […] They were then sacrificed for the examination of neonatal/fetal mortality, which was calculated as the total number of dead delivered pups and dead fetuses divided by the total number of implantation sites. […]

With “fPIBF1: recombinant full-length PIBF1, aa 1-757, SEQ ID NO:11, N-terminal GST tag of 232 amino acids, Abnova H00010464-P01” the neonatal/fetal mortality ([1]; protein intravenous on gd 16.5 before 5 μg intraperitoneal LPS) was “significantly reduced”, the “rate of preterm delivery (PTL)” value ([1]; protein intravenous on gd 16.5 three hours before 5 μg intraperitoneal LPS) was “significantly reduced” and the “neutrophil infiltration into the uterus (frequency of CD11b+Ly-6G+ neutrophils in CD45+ cells)” value ([2]; gd 17.5 μMT mice after intravenous protein and intraperitoneal LPS on gd 16.5) was “inhibited”. The “uterine neutrophil activation (CD11b, CD18, iNOS, ICAM-1, MHC-II, CD62L expression)” value [2] was “reduced activation”, the “uterine neutrophil activation (CD11b, CD18, iNOS, ICAM-1, MHC-II, CD62L expression)” value ([2]; listed as full-length PIBF1) was “reduces” and the “uterine induction of proinflammatory mediators (uterine inflammation)” value [3] was “suppressed”. For the same substance, the “uterine induction of proinflammatory mediators (uterine inflammation)” value ([3]; listed as full-length PIBF1) was “reduces”.
